Assay results taken from ChEMBL document CHEMBL5506027, “Discovery of a Novel and Potent Cyclin-Dependent Kinase 8/19 (CDK8/19) Inhibitor for the Treatment of Cancer” (J Med Chem, 2024).
pIC50: −log10 of the molar value. The source made the active and inactive calls. The rule behind the calls is not given here.

How the values were obtained:
[1] = Selectivity ratio of IC50 for CDK7/CyclinH/MAT1 (unknown origin) to IC50 for CDK8/Cyclin C (unknown origin)
[2] = Selectivity ratio of IC50 for CDK2/CyclinA2 (unknown origin) to IC50 for CDK8/Cyclin C (unknown origin)
[3] = Selectivity ratio of IC50 for CDK1/CyclinA2 (unknown origin) to IC50 for CDK8/Cyclin C (unknown origin)
[4] = Selectivity ratio of IC50 for CDK2/CyclinE1 (unknown origin) to IC50 for CDK8/Cyclin C (unknown origin)
[5] = Selectivity ratio of IC50 for CDK5/p25NCK (unknown origin) to IC50 for CDK8/Cyclin C (unknown origin)
[6] = Tmax in mouse at 5 mg/kg, po measured upto 24 hrs by LC-MS/MS analysis; type: ADME, organism-based; settings: in vivo
[7] = AUC(0 to 24 hrs) in mouse at 5 mg/kg, po measured upto 24 hrs by LC-MS/MS analysis; type: ADME, organism-based; settings: in vivo
[8] = Oral bioavailability in mouse at 5 mg/kg measured upto 24 hrs by LC-MS/MS analysis; type: ADME, organism-based; settings: in vivo
[9] = Tmax in rat at 5 mg/kg, po measured upto 24 hrs by LC-MS/MS analysis; type: ADME, organism-based; settings: in vivo
[10] = Cmax in rat at 5 mg/kg, po measured upto 24 hrs by LC-MS/MS analysis; type: ADME, organism-based; settings: in vivo
[11] = AUC(0 to 24 hrs) in rat at 5 mg/kg, po measured upto 24 hrs by LC-MS/MS analysis; type: ADME, organism-based; settings: in vivo
[12] = Oral bioavailability in rat at 5 mg/kg measured upto 24 hrs by LC-MS/MS analysis; type: ADME, organism-based; settings: in vivo
[13] = Cmax in dog at 3 mg/kg, po measured upto 24 hrs by LC-MS/MS analysis; type: ADME, organism-based, Canis lupus familiaris; settings: in vivo
[14] = Dose normalized AUC in dog at 3 mg/kg, po measured upto 24 hrs by LC-MS/MS analysis; type: ADME, organism-based, Canis lupus familiaris; settings: in vivo
[15] = target: CDK8/Cyclin C (Homo sapiens, UniProt P49336); experiment: Displacement of tracer 236 from CDK8/cyclin C (unknown origin) preincubated for 15 mins followed by tracer addition and measured after 60 mins by FRET based lanthascreen assay; type: protein-complex assay
Sequence of CDK8/Cyclin C (P49336 whole entry): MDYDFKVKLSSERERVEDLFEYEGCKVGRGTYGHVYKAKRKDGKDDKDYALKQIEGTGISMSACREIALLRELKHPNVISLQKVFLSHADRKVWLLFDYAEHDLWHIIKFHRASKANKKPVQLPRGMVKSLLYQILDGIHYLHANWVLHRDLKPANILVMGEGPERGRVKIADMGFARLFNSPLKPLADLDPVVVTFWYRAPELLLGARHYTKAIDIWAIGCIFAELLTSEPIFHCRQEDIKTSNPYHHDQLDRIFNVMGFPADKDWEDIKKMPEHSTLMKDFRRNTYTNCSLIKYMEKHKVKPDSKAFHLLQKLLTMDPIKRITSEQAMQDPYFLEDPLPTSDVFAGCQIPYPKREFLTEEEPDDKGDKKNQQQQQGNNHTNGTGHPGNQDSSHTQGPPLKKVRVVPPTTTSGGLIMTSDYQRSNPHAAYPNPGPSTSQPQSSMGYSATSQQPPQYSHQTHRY
Sequence of CDK8/Cyclin C (P24863 whole entry, further chain): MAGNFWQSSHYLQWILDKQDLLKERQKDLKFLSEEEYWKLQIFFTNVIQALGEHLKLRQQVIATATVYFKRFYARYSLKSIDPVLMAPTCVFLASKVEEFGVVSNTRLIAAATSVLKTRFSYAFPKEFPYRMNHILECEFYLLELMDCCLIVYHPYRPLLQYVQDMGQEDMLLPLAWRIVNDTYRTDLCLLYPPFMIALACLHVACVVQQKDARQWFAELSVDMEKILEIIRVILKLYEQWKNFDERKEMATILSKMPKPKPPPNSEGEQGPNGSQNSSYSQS

[16] = system: MV4-11; experiment: Potency index, ratio of RVU120 IC50 to test compound IC50 for antiproliferative activity against human MV4-11 cells; type: functional
[17] = target: Signal transducer and activator of transcription 1-alpha/beta (Homo sapiens) (UniProt P42224); experiment: Induction of STAT1 (unknown origin) phosphorylation at Ser727 residues by Western blotting analysis; settings: filed as activator, dose 0.0032-10 µM
Sequence of Signal transducer and activator of transcription 1-alpha/beta (Homo sapiens) (P42224 whole entry): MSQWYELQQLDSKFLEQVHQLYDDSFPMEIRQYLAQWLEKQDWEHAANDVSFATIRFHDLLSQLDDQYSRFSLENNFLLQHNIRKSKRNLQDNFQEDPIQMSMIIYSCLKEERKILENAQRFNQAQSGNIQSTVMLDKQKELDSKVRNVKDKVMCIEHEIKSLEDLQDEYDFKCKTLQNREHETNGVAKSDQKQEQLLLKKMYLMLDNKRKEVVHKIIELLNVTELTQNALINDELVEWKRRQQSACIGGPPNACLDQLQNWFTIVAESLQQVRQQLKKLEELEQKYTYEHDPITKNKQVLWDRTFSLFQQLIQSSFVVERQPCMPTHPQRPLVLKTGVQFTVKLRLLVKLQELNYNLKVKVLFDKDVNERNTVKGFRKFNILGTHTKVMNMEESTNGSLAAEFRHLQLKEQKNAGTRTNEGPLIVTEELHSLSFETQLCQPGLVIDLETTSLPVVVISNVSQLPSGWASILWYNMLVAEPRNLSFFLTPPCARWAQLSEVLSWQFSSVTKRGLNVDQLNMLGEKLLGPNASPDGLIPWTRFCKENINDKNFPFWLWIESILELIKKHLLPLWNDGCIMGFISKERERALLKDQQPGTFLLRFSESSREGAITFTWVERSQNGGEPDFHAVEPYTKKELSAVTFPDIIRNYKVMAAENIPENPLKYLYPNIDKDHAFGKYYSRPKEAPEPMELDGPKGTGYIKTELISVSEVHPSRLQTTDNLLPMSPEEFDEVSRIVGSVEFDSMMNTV

[18] = target: Cyclin-dependent kinase 2/cyclin E1 (Homo sapiens) (UniProt P24864+P24941); experiment: Inhibition of CDK2/Cyclin E1 (unknown origin) at 1 uM by luminescence based assay relative to control; type: protein-complex assay
[19] = target: CDK18/Cyclin Y (Homo sapiens) (UniProt Q07002+Q8ND76); experiment: Inhibition of CDK18/cyclinY (unknown origin) at 1 uM by luminescence based assay relative to control; type: protein-complex assay
[20] = target: CDK4/Cyclin D3 (Homo sapiens) (UniProt P11802+P30281); experiment: Inhibition of CDK4/cyclinD3 (unknown origin) at 1 uM by luminescence based assay relative to control; type: protein-complex assay
[21] = target: Cyclin-dependent kinase 13/Cyclin-K (Homo sapiens) (UniProt Q14004+O75909); experiment: Inhibition of CDK13/cyclinK (unknown origin) at 1 uM by luminescence based assay relative to control; type: protein-complex assay
Sequence of Cyclin-dependent kinase 13/Cyclin-K (Homo sapiens) (O75909 whole entry, looked up): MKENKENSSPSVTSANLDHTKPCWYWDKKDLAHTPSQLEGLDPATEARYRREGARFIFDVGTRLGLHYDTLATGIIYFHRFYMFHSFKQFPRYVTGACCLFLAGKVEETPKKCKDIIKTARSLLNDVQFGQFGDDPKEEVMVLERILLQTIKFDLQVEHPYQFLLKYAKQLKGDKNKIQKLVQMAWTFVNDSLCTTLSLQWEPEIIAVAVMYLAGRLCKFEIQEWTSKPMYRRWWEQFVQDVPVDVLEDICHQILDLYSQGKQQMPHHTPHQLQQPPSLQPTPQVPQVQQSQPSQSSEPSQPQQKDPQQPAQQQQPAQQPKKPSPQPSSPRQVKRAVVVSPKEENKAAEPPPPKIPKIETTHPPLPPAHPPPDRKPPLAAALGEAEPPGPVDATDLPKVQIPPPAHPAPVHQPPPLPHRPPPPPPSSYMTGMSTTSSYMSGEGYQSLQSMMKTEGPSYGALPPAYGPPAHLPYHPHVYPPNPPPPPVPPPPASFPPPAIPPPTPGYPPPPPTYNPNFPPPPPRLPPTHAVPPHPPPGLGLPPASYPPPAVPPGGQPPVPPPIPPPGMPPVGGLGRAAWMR
Sequence of Cyclin-dependent kinase 13/Cyclin-K (Homo sapiens) (Q14004 whole entry, looked up): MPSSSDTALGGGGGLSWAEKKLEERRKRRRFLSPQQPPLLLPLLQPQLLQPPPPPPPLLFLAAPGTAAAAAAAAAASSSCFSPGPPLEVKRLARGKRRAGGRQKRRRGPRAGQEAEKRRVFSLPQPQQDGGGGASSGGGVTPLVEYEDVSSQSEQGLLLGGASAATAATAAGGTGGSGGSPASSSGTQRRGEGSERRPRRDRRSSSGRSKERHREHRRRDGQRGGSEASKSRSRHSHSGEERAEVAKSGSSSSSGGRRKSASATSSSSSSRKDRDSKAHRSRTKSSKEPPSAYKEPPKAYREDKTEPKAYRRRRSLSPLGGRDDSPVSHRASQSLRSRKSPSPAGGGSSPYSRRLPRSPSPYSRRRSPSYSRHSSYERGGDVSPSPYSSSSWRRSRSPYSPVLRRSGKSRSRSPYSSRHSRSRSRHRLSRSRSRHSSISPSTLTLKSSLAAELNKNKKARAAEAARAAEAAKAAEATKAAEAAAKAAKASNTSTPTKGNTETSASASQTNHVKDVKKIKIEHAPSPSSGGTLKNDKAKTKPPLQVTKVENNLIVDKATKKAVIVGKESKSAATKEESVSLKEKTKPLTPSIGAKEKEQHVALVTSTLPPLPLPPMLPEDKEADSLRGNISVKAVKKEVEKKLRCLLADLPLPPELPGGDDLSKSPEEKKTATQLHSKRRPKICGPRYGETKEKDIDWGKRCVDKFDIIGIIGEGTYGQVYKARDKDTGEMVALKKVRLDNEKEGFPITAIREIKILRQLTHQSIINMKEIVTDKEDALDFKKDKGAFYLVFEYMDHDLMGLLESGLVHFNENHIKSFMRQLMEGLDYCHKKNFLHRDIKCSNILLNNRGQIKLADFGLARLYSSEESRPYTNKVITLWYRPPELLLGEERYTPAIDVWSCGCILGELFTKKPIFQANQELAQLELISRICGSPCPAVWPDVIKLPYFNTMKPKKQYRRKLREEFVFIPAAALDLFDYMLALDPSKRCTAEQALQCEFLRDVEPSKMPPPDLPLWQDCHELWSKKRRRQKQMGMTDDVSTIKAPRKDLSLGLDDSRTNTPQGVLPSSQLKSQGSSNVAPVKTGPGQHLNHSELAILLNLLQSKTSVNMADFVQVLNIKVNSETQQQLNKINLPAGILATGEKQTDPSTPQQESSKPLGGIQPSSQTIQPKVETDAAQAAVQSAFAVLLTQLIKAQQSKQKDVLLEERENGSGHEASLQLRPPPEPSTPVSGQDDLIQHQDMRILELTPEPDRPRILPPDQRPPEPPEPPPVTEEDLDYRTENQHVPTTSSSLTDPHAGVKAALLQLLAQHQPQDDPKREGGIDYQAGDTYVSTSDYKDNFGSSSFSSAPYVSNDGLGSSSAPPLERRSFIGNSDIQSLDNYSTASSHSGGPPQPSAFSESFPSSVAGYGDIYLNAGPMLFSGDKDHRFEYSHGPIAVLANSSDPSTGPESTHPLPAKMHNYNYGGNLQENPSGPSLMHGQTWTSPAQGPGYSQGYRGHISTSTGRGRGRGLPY

[22] = target: CDK6/cyclin D3 (Homo sapiens) (UniProt P30281+Q00534); experiment: Inhibition of CDK6/cyclinD3 (unknown origin) at 1 uM by luminescence based assay relative to control; type: protein-complex assay
[23] = target: Cyclin-dependent kinase 8 (Homo sapiens, UniProt P49336); experiment: Inhibition of CDK8 (unknown origin) assessed as residual activity at 500 nM by ADP-Glo assay
Sequence of Cyclin-dependent kinase 8 (P49336 whole entry): as the sequence (P49336 whole entry) above

[24] = Cmax in mouse at 30 mg/kg, po measured upto 24 hrs by LC-MS/MS analysis; type: ADME, organism-based; settings: in vivo
[25] = AUC(0 to 24 hrs) in mouse at 30 mg/kg, po measured upto 24 hrs by LC-MS/MS analysis; type: ADME, organism-based; settings: in vivo
[26] = Cmax in rat at 10 mg/kg, po measured upto 24 hrs by LC-MS/MS analysis; type: ADME, organism-based; settings: in vivo
[27] = Dose normalized AUC in rat at 10 mg/kg, po measured upto 24 hrs by LC-MS/MS analysis; type: ADME, organism-based; settings: in vivo
[28] = Oral bioavailability in rat at 10 mg/kg measured upto 24 hrs by LC-MS/MS analysis; type: ADME, organism-based; settings: in vivo
[29] = Tmax in dog at 5 mg/kg, po measured upto 24 hrs by LC-MS/MS analysis; type: ADME, organism-based, Canis lupus familiaris; settings: in vivo
[30] = Cmax in dog at 5 mg/kg, po measured upto 24 hrs by LC-MS/MS analysis; type: ADME, organism-based, Canis lupus familiaris; settings: in vivo
[31] = AUC(0 to 24 hrs) in dog at 5 mg/kg, po measured upto 24 hrs by LC-MS/MS analysis; type: ADME, organism-based, Canis lupus familiaris; settings: in vivo
[32] = Oral bioavailability in dog at 5 mg/kg measured upto 24 hrs by LC-MS/MS analysis; type: ADME, organism-based, Canis lupus familiaris; settings: in vivo
[33] = Tmax in monkey at 5 mg/kg, po measured upto 24 hrs by LC-MS/MS analysis; type: ADME, organism-based, Macaca mulatta; settings: rhesus monkey, in vivo
[34] = Half-life in monkey at 1 mg/kg, iv measured upto 24 hrs by LC-MS/MS anlaysis; type: ADME, organism-based, Macaca mulatta; settings: rhesus monkey, in vivo
[35] = system: MV4-11; experiment: Antitumor activity against human MV4-11 cells xenografted in BALB/c nude mouse assessed as tumor growth inhibition at 3 mg/kg, po qd and measured twice a week for 3 weeks; type: functional; settings: MV4-11, 504 h, read-out: TGI
[36] = system: MV4-11; experiment: Antitumor activity against human MV4-11 cells xenografted in BALB/c nude mouse assessed as tumor growth inhibition at 10 mg/kg, po qd and measured twice a week for 3 weeks; type: functional; settings: MV4-11, 504 h, read-out: TGI
[37] = system: MV4-11; experiment: Antitumor activity against human MV4-11 cells xenografted in po dosed BALB/c nude mouse assessed as tumor growth inhibition measured twice a week for 3 weeks; type: functional, organism-based; settings: dose 3-10 mg/kg
[38] = Toxicity in BALB/c nude mouse assessed as changes in body weight at 3 to 10 mg/kg, po qd measured twice a week for 3 weeks; type: organism-based; settings: in vivo, 504 h, dose 3-10 mg/kg
[39] = system: MDA-MB-231; experiment: Inhibition of cell growth in human MDA-MB-231 cells; type: functional, cell-based
[40] = system: MDA-MB-468; experiment: Antitumor activity against human MDA-MB-468 cells xenografted in BALB/c nude mouse assessed as tumor growth inhibition at 3 mg/kg, po qd and measured twice a week for 3 weeks; type: functional, organism-based
[41] = system: MDA-MB-468; experiment: Synergistic antitumor activity against human MDA-MB-468 cells xenografted in BALB/c nude mouse assessed as tumor growth inhibition at 3 mg/kg, ip qd and measured twice a week for 3 weeks in presence of carboplatin; type: functional; settings: MDA-MB-468, 504 h, read-out: TGI
[42] = system: Z-138; experiment: Antitumor activity against human Z138 cells xenografted in po dosed CB17 SCID mouse assessed as tumor growth inhibition administered once daily for 21 days; type: functional, organism-based; settings: dose 2.5-5 mg/kg, time 21.0 day

Cc1c(Br)c(Br)c2c3c1nc(N1CCNCC1)n3CCC2 [SEL-120 FREE BASE]
Ratio IC50 [1]: 2.9 | Ratio IC50 [2]: 0.3 | Ratio IC50 [3]: 1.2 | Ratio IC50 [4]: 0.1 | Ratio IC50 [5]: 0.1 | Tmax [6]: 1.3 h | AUC(0-t) at 24 h [7]: 1350 ng·h/mL | F [8]: 155% | Tmax [9]: 1.67 h | Cmax [10]: 12 ng/mL | AUC(0-t) at 24 h [11]: 56 ng·h/mL | bioavailability [12]: 20% | Cmax [13]: 215 ng/mL | AUC/dose [14]: 685 ng·h/mL

FC(F)c1c(Br)c(Br)cc2c1nc(N1CCNCC1)n2C1CCOCC1
pIC50 [15]: 8.68 | Ratio IC50 [16]: 7 | Activity [17]: Dose-Dependent Effect | inhibition [18]: 94.8% | inhibition [19]: 65% | inhibition [20]: 58% | inhibition [21]: 57.4% | inhibition [22]: 2.33% | Activity [23]: 14% | Cmax [24]: 2280 ng/mL | AUC(0-t) at 24 h [25]: 23900 ng·h/mL | Cmax [26]: 190 ng/mL | AUC/dose [27]: 190 ng·h/mL | bioavailability [28]: 89% | Tmax [29]: 2 h | Cmax [30]: 475 ng/mL | AUC(0-t) at 24 h [31]: 5590 ng·h/mL | bioavailability [32]: 85% | Tmax [33]: 4 h | half-life [34]: 7 h | inhibition in vivo at 3 mg/kg [35]: 29% | inhibition in vivo at 10 mg/kg [36]: 36% | Activity [37]: Dose-Dependent Effect | Activity [38]: Non-Toxic | pIC50 [39]: 7.40 | Activity [40]: inactive | inhibition in vivo at 3 mg/kg [41]: 66% | Activity [42]: Dose-Dependent Effect
